Key:
[1] = Cytotoxicity assay (Alamar Blue) in cardiac fibroblasts; type: cell-based, rat; details: Sprague-Dawley, rat, primary neonatal rat cardiac fibroblasts (CFs), CFs treated for 48 h
[2] = test system: procollagen type I expression in CFs; experiment: Procollagen type I expression levels in cardiac fibroblasts, western blot; type: cell-based, rat; details: for procollagen type I expression levels: 5 μM for 48 h, absence of TGF-β1, vs. control; for procollagen type I expression levels induced by TGF-β1: derivatives 5 μM (TSA 0.1 μM) for 48 h in presence of TGF-β1
Experimental: In CFs collagen type I secretion is a hallmark of cardiac fibrosis development, which is regulated by HDACs. […] For this purpose, a fixed concentration of 5a, 6a, 7a and 8a derivatives in presence/absence of TGF-β1 were studied, and procollagen type I expression levels were measured by using the western blot technique. TSA was used as control and also for comparative purposes. In Figure 5 (A and B), in the upper panel representative photographs of procollagen type I expression level and GAPDH (used as charge control) are shown, whereas in the lower panel the graphic analyses are observed.
For the analysis of the protein expression of histone H4–acetylated (ac–H4) and total H4 histone, a number of 1 × 10^6 of CFs seeded in 60 mm plates was used, which were incubated with the inhibitory compounds at a concentration of 10 μM, in the absence/presence of TGF–β1(5ng/mL) for 4 h. Subsequently, total histones were extracted by the technique of saline precipitation (high salt extraction). Briefly, CFs were scraped from the plates with 1 mL of cold PBS transferring their contents to Eppendorf tubes to be centrifuged for 60 s at 1500 rpm at 4 °C and re–suspended in 400 μL of cold buffer A (10 mM 4-(2-hydroxyethyl)-1-piperazineethanesulfonic acid-KOH (HEPES-KOH) adjusted to pH 7.9, 1.5 mM MgCl2, 10 mM KCl, 0.5 mM dithiothreitol and 0.2 mM phenylmethylsulfonyl fluoride (PMSF). The suspension is left on ice for 10 min and then placed in the vortex for 10 s. The samples were centrifuged for 60 s, subsequently discarding the supernatant fraction. The obtained pellet was re-suspended in 60 μL of cold C buffer (20 mM HEPES-KOH adjusted to pH 7.9, 25% glycerol, 420 mM NaCl, 1.5 mM MgCl2, 0.2 mM EDTA, dithiothreitol 0.5 mM and 0.2 mM PMSF) and placed on ice for 20 min for saline precipitation. Cell debris is removed by centrifugation for 120 s at 1500 rpm at 4 °C and the supernatant fraction, which contains the DNA binding proteins, is stored at minus 20 °C. For the analysis of α–SMA and procollagen type I expression levels, 3×10^5 CFs seeded in 35 mm plates were used, which were incubated together with inhibitor compounds at a 5 μM, in the absence/presence of TGF–β1 (5 ng/mL) for 48 h. To obtain the total proteins, the CFs were washed three times with cold PBS, then scraped and lysed with 50 μL of radio inmuno-precipitation assay (RIPA) lysis buffer (10 mM Tris–HCl pH 7.2, 5 mM EDTA, 150 mM NaCl, Triton X–100 1%, sodium dodecyl sulfate (SDS) 0.1%, deoxycholate 1%, leupeptin 2 μg/mL, aprotinin 10mM, PMSF 1mM and Na3VO4 100μM). The solution was centrifuged for 15 min at 10,000 rpm and at 4 °C. The supernatant fraction containing the total proteins was stored at minus 20 °C. The concentration of proteins obtained was determined by spectrophotometry at 570 nm, using the Bradford method (Bio-Rad, Hercules, CA, USA).
CFs proteins (25 μg), were subjected to 10% sodium dodecyl sulfate-polyacrylamide gel electrophoresis and finally transferred onto a nitrocellulose membrane (Millipore, Billerica, MA, USA). The membrane was washed twice with tris–buffered saline solution containing 0.1% Tween 20 (TBST). After being blocked with TBST containing 5% nonfat milk for 40 min, the membrane was incubated with primary antibodies in TBST/1% nonfat milk at 4 °C overnight. The membrane was washed three times with TBST for a total of 15 min and then incubated with primary antibodies (ac–H4, H4 total, α-SMA, procollagen type I and GAPDH). Then the membrane was incubated with goat anti–rabbit or anti-mouse IgG antibodies conjugated with horseradish (diluted 1:1000) for 1 h at room temperature. Signals were developed with ECL reagents and exposure to photographic film.
Figure 5 CTz non–substituted inhibit procollagen type I expression levels in cardiac fibroblasts. […] (B) CFs were exposed to 5a, 6a, 7a and 8a at 5 μM for 48 h in presence of TGF–β1. Procollagen type I expression levels were measured by western blot. GAPDH was used as control load.

| Structure (SMILES) | CC50 at 48 h [1] | procollagen type I expression levels [2] | procollagen type I expression levels induced by TGF-β1 [2] |
| --- | --- | --- | --- |
| O=C(Nc1nc(-c2cc3ccccc3oc2=O)cs1)c1ccc(O)c(O)c1 [Compound 6a] | 140 ± 11.7 µM | decreased in a statistically significant manner | decreased, close to control levels |
| O=C(O)CCCCC(=O)Nc1nc(-c2cc3ccccc3oc2=O)cs1 [Compound 7a] | 111 ± 4.4 µM | had no effect |  |
| O=C(CCCCC(=O)Nc1nc(-c2cc3ccccc3oc2=O)cs1)NO [Compound 8a, 5-[4-(2-Oxo-2H-chromen-3-yl)-thiazol-2-yl-carbamoyl]-N-hydroxypentanamide] | 90.5 ± 5.1 µM | decreased in a statistically significant manner | decreased, close to control levels |
| O=C(CCCCC1CCSS1)Nc1nc(-c2cc3ccccc3oc2=O)cs1 (centres unmarked) [Compound 5a, 5-[1,2]-Dithiolan-3-yl-N-[4-(2-oxo-2H-chromen-3-yl)-thiazol-2-yl]-pentanamide] | 201 ± 20.3 µM | decreased in a statistically significant manner | decreased, close to control levels |

— paper PMC6412891, “Synthesis and Biological Evaluation of Novel Thiazolyl-Coumarin Derivatives as Potent Histone Deacetylase Inhibitors with Antifibrotic Activity” (Molecules, 2019)
